# Experimental data taken from US6369069B1 (Aventis Pharma Deutschland GmbH, priority 1998, dated 2002).
# System: Na^+-dependent Cl^−/HCO3^− exchanger (NCBE)
# Assay: Inhibition of the Na+-dependent Cl−/HCO3− exchanger (NCBE) in human endothelial cells (pHi recovery, BCECF fluorescence, FLIPR)
# Type: cell-based
# Conditions: 10 μM
# Method in brief: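 Fluorescence rise (FLIPR, 2 min, 35 °C) tracked pHi recovery in acid-loaded, BCECF-loaded ECV-304 cells after adding Na+- and HCO3−-containing buffer with 50 μM HOE 642 and graded compound doses. Inhibition was calculated against full-recovery and bicarbonate-free no-recovery controls.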
row,Compound,Residual activity % of the NCBE at 10 μM [%]
1,N#CNS(=O)(=O)c1ccccc1-c1ccc(CN(Cc2ccc(Cl)cc2Cl)C(=O)Cc2cccs2)cc1 [Example 270],33.9
2,N#CNS(=O)(=O)c1ccccc1-c1ccc(CN(CC2=Nc3ccccc3CN2)C(=O)Cc2cccs2)cc1 [Example 238],54.7
3,N#CNS(=O)(=O)c1ccccc1-c1ccc(CN(Cc2ccccc2Cl)C(=O)c2ccccc2Cl)cc1 [Example 101],62.6
4,COc1cccc(CN(Cc2ccc(-c3ccccc3S(=O)(=O)NC#N)cc2)C(=O)c2ccccc2Cl)c1 [Example 106],98.9
5,CC(C)(C)c1ccc(C(=O)N(Cc2ccccc2)Cc2ccc(-c3ccccc3S(=O)(=O)NC#N)cc2)cc1 [Example 31],52.2
6,N#CNS(=O)(=O)c1ccccc1-c1ccc(CN(Cc2ccccc2Cl)C(=O)c2ccccc2F)cc1 [Example 91],62.7
7,N#CNS(=O)(=O)c1ccccc1-c1ccc(CN(CCOc2ccccc2)C(=O)Cc2ccc(Cl)cc2)cc1 [Example 151],29.0
8,COc1cccc(CC(=O)N(Cc2ccc(-c3ccccc3S(=O)(=O)NC#N)cc2)C2CCCCC2)c1 [Example 24],92.1
9,N#CNS(=O)(=O)c1ccccc1-c1ccc(CN(Cc2ccccc2Cl)C(=O)Cc2cccs2)cc1 [Example 143],35.7
10,N#CNS(=O)(=O)c1ccccc1-c1ccc(CN(Cc2ccccc2)C(=O)C(NC(=O)OCc2ccccc2)c2ccccc2)cc1 (stereo not drawn) [Example 242],72.4
11,COc1cccc(CN(Cc2ccc(-c3ccccc3S(=O)(=O)NC#N)cc2)C(=O)NC2CCCCC2)c1 [Example 304],56.0
12,COc1ccc(CN(Cc2ccc(-c3ccccc3S(=O)(=O)NC#N)cc2)C(=O)c2ccccc2F)cc1 [Example 39],51.3
13,COc1ccccc1CN(Cc1ccc(-c2ccccc2S(=O)(=O)NC#N)cc1)C(=O)c1cccs1 [Example 84],54.7
14,COCCN(Cc1ccc(-c2ccccc2S(=O)(=O)NC#N)cc1)C(=O)CCCc1cccs1 [Example 187],62.4
15,CC(=O)N(Cc1ccc(-c2ccccc2S(=O)(=O)NC#N)cc1)Cc1ccccc1Cl [Example 181],80.8
16,CC(C)=CCCC(C)=CCN(Cc1ccc(-c2ccccc2S(=O)(=O)NC#N)cc1)C(=O)CC1CCCC1 [Example 363],48.3
17,N#CNS(=O)(=O)c1ccccc1-c1ccc(CN(Cc2ccccc2F)C(=O)CC2CCCCC2)cc1 [Example 356],47.4
18,C[C@@H](c1ccccc1)N(Cc1ccc(-c2ccccc2S(=O)(=O)NC#N)cc1)C(=O)C(C(=O)Cc1ccccc1)c1ccccc1 (stereo partly drawn) [Example 136],93.6
19,COc1cccc(CN(Cc2ccc(-c3ccccc3S(=O)(=O)NC#N)cc2)C(=O)Nc2c(F)cccc2F)c1 [Example 301],87.9

row,Compound,Residual activity % of the NCBE at 10 μM [%]
1,N#CNS(=O)(=O)c1ccccc1-c1ccc(CN(Cc2cccs2)C(=O)Cc2ccccc2[N+](=O)[O-])cc1 [Example 252],44.5
2,N#CNS(=O)(=O)c1ccccc1-c1ccc(CN(Cc2ccccc2)C(=O)C2CCCCC2)cc1 [Example 13],74.7
3,CCN(Cc1ccc(-c2ccccc2S(=O)(=O)NC#N)cc1)C(=O)Cc1csc2ccccc12 [Example 215],65.7
4,C[C@H](c1ccccc1)N(Cc1ccc(-c2ccccc2S(=O)(=O)NC#N)cc1)C(=O)Cc1cccs1 [Example 133],40.9
5,N#CNS(=O)(=O)c1ccccc1-c1ccc(CN(Cc2ccc3c(c2)OCO3)C(=O)c2cccs2)cc1 [Example 87],54.8
6,COc1ccc(CN(Cc2ccc(-c3ccccc3S(=O)(=O)NC#N)cc2)C(=O)Cc2cccs2)cc1 [Example 27],35.5
7,COc1ccc(CCN(Cc2ccc(-c3ccccc3S(=O)(=O)NC#N)cc2)C(=O)Cc2ccccc2)cc1 [Example 130],77.8
8,CCN(Cc1ccc(-c2ccccc2S(=O)(=O)NC#N)cc1)C(=O)Cc1ccsc1 [Example 231],57.8
9,N#CNS(=O)(=O)c1ccccc1-c1ccc(CN(CCCc2ccccc2)C(=O)C(=O)c2cccs2)cc1 [Example 194],61.1
10,COc1ccc(CCN(Cc2ccc(-c3ccccc3S(=O)(=O)NC#N)cc2)C(=O)c2cccs2)cc1 [Example 90],84.2
11,Cc1ccccc1CN(Cc1ccc(-c2ccccc2S(=O)(=O)NC#N)cc1)C(=O)CC1CCCC1 [Example 362],44.1
12,N#CNS(=O)(=O)c1ccccc1-c1ccc(CN(C(=O)Cc2cccs2)C2CCCCC2)cc1 [Example 30],95.2
13,COCCN(Cc1ccc(-c2ccccc2S(=O)(=O)NC#N)cc1)C(=O)C(=O)c1cccs1 [Example 195],58.3
14,COc1ccc(CN(Cc2ccc(-c3ccccc3S(=O)(=O)NC#N)cc2)C(=O)Cc2ccc(Cl)cc2)c(OC)c1 [Example 154],36.2
15,COc1ccccc1C(=O)N(Cc1ccc(-c2ccccc2S(=O)(=O)NC#N)cc1)Cc1ccc2ccccc2c1 [Example 330],14.4
16,COc1ccccc1CN(Cc1ccc(-c2ccccc2S(=O)(=O)NC#N)cc1)C(=O)Cc1ccccc1 [Example 124],46.5
17,CC(C)(C)CC(=O)N(CCc1cccs1)Cc1ccc(-c2ccccc2S(=O)(=O)NC#N)cc1 [Example 159],61.2
18,COc1ccc(CN(Cc2ccc(-c3ccccc3S(=O)(=O)NC#N)cc2)C(C)=O)cc1 [Example 69],95.4
19,C[C@@H](c1ccccc1)N(Cc1ccc(-c2ccccc2S(=O)(=O)NC#N)cc1)C(=O)c1cccs1 [Example 83],97.5

# Same assay, conditions: 10 μM compound; human endothelial cells (ECV-304); related to 100% and 0% pHi recovery controls
row,Compound,Residual activity of the NCBE at 10 μM [%]
1,"COCCOc1cc(-c2ccccc2S(=O)(=O)NC#N)ccc1CN(Cc1ccccc1)C(=O)Cc1cccs1 [Example 560, 4′-{[Benzyl-2-(thiophen-2-yl)acetylamino]methyl}-3′-(2-methoxy)ethoxy-biphenyl-2-sulfonylcyanamide]",8.0

# Same assay, conditions: compound at 10 μM; R(3) to R(7) hydrogen series
row,Compound,Residual activity % of the NCBE at 10 μM [%]
1,CC(C(=O)N(Cc1ccccc1)Cc1ccc(-c2ccccc2S(=O)(=O)NC#N)cc1)c1ccsc1 (stereo not drawn) [Example 388],63.7
2,N#CNS(=O)(=O)c1ccccc1-c1ccc(CN(Cc2ccccc2F)C(=O)CC2CCCC2)cc1 [Example 366],38.4

# Same assay, conditions: compound at 10 μM; sub-table with R7 substituent
row,Compound,Residual activity % of the NCBE at 10 μM [%]
1,Cc1ccc(-c2ccc(CN(Cc3cccc4ccccc34)C(=O)CC3CCCCC3)cc2)c(S(=O)(=O)NC#N)c1 [Example 546],63.6
2,Cc1ccc(-c2ccc(CN(Cc3cccc(Cl)c3Cl)C(=O)CC3CCCCC3)cc2)c(S(=O)(=O)NC#N)c1 [Example 552],61.5
3,Cc1ccc(-c2ccc(CN(Cc3ccccc3F)C(=O)C(C)c3cccs3)cc2)c(S(=O)(=O)NC#N)c1 (stereo not drawn) [Example 527],67.5
4,Cc1ccc(-c2ccc(CN(Cc3cccs3)C(=O)Cc3ccsc3)cc2)c(S(=O)(=O)NC#N)c1 [Example 541],52.8
